Test results from article PMC6838142, “Nano-Antagonist Alleviates Inflammation and Allows for MRI of Atherosclerosis” (Nanotheranostics, 2019).

Assays:
[1] = system: CCR2hiLy6Chi inflammatory cells in blood of ApoE-/- mice; assay: Flow cytometry of blood immune cells after injection; type: in vivo, mouse
Method: Twenty-four hours after nanoparticle injection (see above), mice were euthanized and whole blood was collected via cardiac puncture. The cells were separated from plasma via centrifugation at 2500 rpm for 25 min at 4 °C and white blood cells were isolated after lysis of red blood cells with ACK lysis buffer. The cells were resuspended in 1% FBS in PBS (FACS buffer) on ice and stained with fluorophore-conjugated antibodies detecting CD11b, CD11c, CCR2, and Ly6C (Supplementary Table S1) for 30 min at room temperature. Cells were washed with FACS buffer three times and one time with PBS, and then fixed in 2% paraformaldehyde in PBS, pH 7.4. Samples were run on a Becton Dickinson LSR II flow cytometer and cell surface expression analysis of indicated markers was performed using FlowJo software.

CCR2 = assay: Uptake in wild-type macrophages pre-treated with CCR2 inhibitor; type: cell-based, mouse; conditions: BMS CCR2 22 10 nM, 6 h pre-treatment vs DMSO
Method: Supplementary Figure S6. A) Separate channels for main manuscript Figure 1B.
Uptake of carboxyfluorescein-labeled CCTV or VTCC in cultured bone marrow derived macrophages from B)
CCR2 knockout (KO, B6.129S4-Ccr2 /J) or wild-type (WT) mice; C) wild-type mouse-derived macrophages
pre-treated (6 h) with CCR2 inhibitor BMS CCR2 22 (10 nM) or DMSO as vehicle control. C)
(1 picture or pasted object on this page, not shown here)

[2] = system: bone marrow derived macrophages (BMDMs); assay: Immunoblot of IL-1β and HO-1 in LPS-stimulated BMDMs; type: cell-based, mouse
Method: Immunoblotting was performed as previously described with the following modifications. Briefly, cell lysates were obtained in SDS lysis buffer consisting of 2% SDS, 50 mM Tris-HCl (pH 6.8), 100 mM DTT, 5% Ficoll 400, 0.0001% bromophenol blue and a cocktail of protease inhibitors. Lysates were sonicated on ice before heating at 97 °C for 7 min to completely denature the protein. Protein concentration was determined using IR spectroscopy (which is insensitive to high SDS and DTT concentrations) with a Millipore DirectDetect spectrometer. Lysates were equally loaded at 10-15 µg per lane on BioRad TGX Criterion gels (4-15%) and resolved at 300 V in Tris-Glycine running buffer. Proteins were transferred on nitrocellulose membranes using the BioRad TransBlot turbo according to the manufacturer's instructions. Membranes were blocked in fish serum (Aqua Block) or 5% nonfat dry milk in TBS-T (0.05% Tween 20) and probed overnight at 4 °C with primary antibodies as indicated in Supplementary Table S1. The membranes were washed in TBS-T and incubated with secondary antibodies for 1 h at room temperature. After washing, semi-quantitative visualization of the proteins of interest was enabled using an enhanced chemiluminescence reagent as previously described and the Azure C400 western blot imaging system.
N-acetylcysteine (NAC) served as an antioxidant control. β-Actin was used as a loading control. B) Gene expression analysis in RAW cells treated with 1 µM of vehicle, CCTV and VTCC (peptide nanoparticle control) for 24 h. mRNA expression of mannose receptor (Mrc1), nitric oxide synthase 2 (Nos2), tumor necrosis factor (Tnf), interleukin-1beta (Il1b), and interleukin-6 (Il6) were analyzed. C) Cytokines in cell culture supernatants were analyzed as indicated. […] Metrics of chemotactic behaviour i.e. velocity, distance travelled, and chemotactic index were quantified as presented in bar graphs. […] P values are calculated by t-test and error bars are standard errors of three independent experiments.

[3] = system: nanoparticle-targeted cells in atherosclerotic plaque; assay: mRNA analysis of laser-captured nanoparticle-positive plaque areas; type: in vivo, mouse; conditions: single dose, 24 h, CCTV vs VTCC, 3-4 animals
Method: Twenty-four hours after nanoparticle injection (see above), mice were euthanized and abdominal aortas were isolated and embedded in Optimal Cutting Temperature compound. After cryotome-sectioning, resulting in 20-30 slides per mouse, 15 slides were sent to Ohio State laser capture microdissection core lab for capture and analysis. The rest of the slides were processed as follows: after fixation in methanol:acetone 50:50 at -20 °C, slides were hydrated in PBS, blocked for 30 min in fish serum (Aqua Block) and stained for 1 h with primary antibodies against F4/80 followed washing and staining with HRP-conjugated secondary antibody for 30 min. DAB peroxidase kit was then used as per manufacturer's instructions followed by mounting. DAB and antibody staining (but not wash steps) was omitted in slides designated for nanoparticle fluorescence visualization. Nanoparticles fluorescence was visualized with Zeiss 510 LSM-meta confocal microscope and 20x objective. DAB F4/80 staining was visualized with Nikon FN1 microscope and same power objective.

CCTV
accumulation in CCR2-positive blood macrophage subpopulations ([1]; 100 mg/kg, 24 h, three ApoE-/- mice/group): selectively accumulated in macrophage subpopulations positive for CCR2
nanoparticle-positive CCR2hiLy6Chi cells ([1]; 100 mg/kg, 24 h, three ApoE-/- mice/group, vs VTCC): an increased number of these cells were CCTV positive compared to VTCC
number of macrophages that engulfed nanoparticles ([1]; Supplementary Figure S9, CCTV vs VTCC): not due to a different number of macrophages that engulfed nanoparticles
uptake in macrophages pre-treated with BMS CCR2 22 (CCR2): drastically reduced
HO-1 levels at high concentration ([2]; 50 µM): the effect was reversed
HO-1 levels (immunoblot) ([2]; LPS 100 ng/mL, 16 h): reduced
IL-1β production (immunoblot) ([2]; LPS 100 ng/mL, 16 h): dose-dependent reduction of IL-1β
Arg1 mRNA in nanoparticle-targeted plaque cells [3]: slightly upregulated in CCTV-targeted cells, however this was not significant
Ccl2 mRNA in nanoparticle-targeted plaque cells [3]: downregulated
Il6 mRNA in nanoparticle-targeted plaque cells [3]: downregulated
